Test results as given in patent US8758816B2, “Compositions comprising azelastine and methods of use thereof” (priority 2004, dated 2014).
Counter-ions that a name gives are not always drawn.

System: patients with seasonal allergic rhinitis (SAR)
Assay: MP 428 two-week randomized double-blind study: Total Nasal Symptom Score (TNSS), change from baseline
Format: in vivo, human
Set-up: key to Change from Baseline in AM TNSS, Mean / Change from Baseline in AM TNSS, LS Mean / Change from Baseline in AM TNSS, Median: TNSS sum of 4 symptoms each 0-3 (0=none, 3=severe); change from baseline
Settings: for AUC of Change from Baseline in TNSS (AM and PM Combined), Mean / AUC of Change from Baseline in TNSS (AM and PM Combined), Median / AUC of Change from Baseline in TNSS (AM and PM Combined), LS Mean: Day 1 to Day 14; for AUC of Change from Baseline in TNSS (AM and PM Combined), LS Mean: ANCOVA
Protocol: A two-week, randomized, double-blind study, which evaluated the effects of the co-administration of ASTELIN® (azelastine hydrochloride (HCl)) and FLONASE® (fluticasone propionate) compared to either product alone in patients with seasonal allergic rhinitis (SAR) was conducted during the 2006 Texas mountain cedar season. After a 5-day placebo lead-in period, 151 patients with moderate-to-severe allergic rhinitis symptoms were randomized to either: (1) (49 total patients) ASTELIN® (azelastine hydrochloride (HCl)) plus placebo saline nasal spray 2 sprays per nostril, 15 minutes apart, twice daily (AM & PM); (2) (50 total patients) FLONASE® (fluticasone propionate) plus placebo saline nasal spray, 2 sprays per nostril, 15 minutes apart, once daily (AM) and two sessions of placebo saline nasal spray, 2 sprays per nostril, 15 minutes apart (PM); or (3) (52 total patients) the co-administration of ASTELIN® (azelastine hydrochloride (HCl)) 2 sprays per nostril plus FLONASE® (fluticasone propionate) 2 sprays per nostril (AM), 15 minutes apart, and ASTELIN® (azelastine hydrochloride (HCl)) 2 sprays per nostril plus placebo saline nasal spray, 15 minutes apart, (PM) for a 2-week double-blind treatment period.
The primary efficacy variable was the change from baseline in the Total Nasal Symptom Score (TNSS), which comprised sneezing, itchy nose, runny nose, and nasal congestion (individual symptoms scores were assigned a value between 0 and 3, where 0=no symptoms and 3=severe symptoms). This study was not statistically designed to assess the differences between ASTELIN® and FLONASE®.

[1] = Day 12, Per-Protocol Population
[2] = Day 13, Intent-to-Treat Population
[3] = Day 13, Per-Protocol Population
[4] = Day 14, Intent-to-Treat Population
[5] = Day 14, Per-Protocol Population
[6] = Overall (Day 2 to Day 14), Intent-to-Treat Population
[7] = Overall (Day 2 to Day 14), Per-Protocol Population

SMILES: CN1CCCC(n2nc(Cc3ccc(Cl)cc3)c3ccccc3c2=O)CC1 (racemic) [Azelastine, (±)-1-(2H)-phthalazinone, 4-[(4-chlorophenyl)methyl]-2-(hexahydro-1-methyl-1H-azepin-4-yl)-, mono-hydrochloride]
- Percent Change from Baseline in PM TNSS, Median (Day 12, Intent-to-Treat Population): −25.00%
- Change from Baseline in AM and PM Combined TNSS, LS Mean (Day 12, Intent-to-Treat Population, ANCOVA model): −5.46
- Change from Baseline in AM and PM Combined TNSS, LS Mean [1]: −5.40
- Change from Baseline in AM and PM Combined TNSS, Mean [1]: −5.54
- Change from Baseline in AM and PM Combined TNSS, Median [1]: −5.00
- Percent Change from Baseline in AM and PM Combined TNSS, LS Mean [1]: −27.82%
- Percent Change from Baseline in AM and PM Combined TNSS, Mean [1]: −28.25%
- Percent Change from Baseline in AM and PM Combined TNSS, Median [1]: −25.86%
- Change from Baseline in AM TNSS, LS Mean [2]: −2.55
- Change from Baseline in AM TNSS, Mean [2]: −2.50
- Change from Baseline in AM TNSS, Median [2]: −1.80
- Change from Baseline in AM and PM Combined TNSS, Mean [2]: −5.70
- Change from Baseline in AM and PM Combined TNSS, Median [2]: −5.30
- Change from Baseline in PM TNSS, LS Mean [2]: −3.11
- Change from Baseline in PM TNSS, Mean [2]: −3.21
- Change from Baseline in PM TNSS, Median [2]: −3.00
- Percent Change from Baseline in AM TNSS, LS Mean [2]: −26.36%
- Percent Change from Baseline in AM TNSS, Mean [2]: −26.20%
- Percent Change from Baseline in AM TNSS, Median [2]: −18.37%
- Percent Change from Baseline in AM and PM Combined TNSS, LS Mean [2]: −29.24%
- Percent Change from Baseline in AM and PM Combined TNSS, Mean [2]: −29.35%
- Percent Change from Baseline in AM and PM Combined TNSS, Median [2]: −26.15%
- Percent Change from Baseline in PM TNSS, LS Mean [2]: −32.19%
- Percent Change from Baseline in PM TNSS, Mean [2]: −32.27%
- Percent Change from Baseline in PM TNSS, Median [2]: −33.33%
- Change from Baseline in AM and PM Combined TNSS, LS Mean (Day 13, Intent-to-Treat Population, ANCOVA model): −5.65
- Change from Baseline in AM and PM Combined TNSS, LS Mean [3]: −5.59
- Change from Baseline in AM and PM Combined TNSS, Mean [3]: −5.70
- Change from Baseline in AM and PM Combined TNSS, Median [3]: −5.30
- Percent Change from Baseline in AM and PM Combined TNSS, LS Mean [3]: −29.06%
- Percent Change from Baseline in AM and PM Combined TNSS, Mean [3]: −29.35%
- Percent Change from Baseline in AM and PM Combined TNSS, Median [3]: −26.15%
- Change from Baseline in AM TNSS, LS Mean [4]: −2.56
- Change from Baseline in AM TNSS, Mean [4]: −2.52
- Change from Baseline in AM TNSS, Median [4]: −2.00
- Change from Baseline in AM and PM Combined TNSS, Mean [4]: −5.62
- Change from Baseline in AM and PM Combined TNSS, Median [4]: −5.30
- Change from Baseline in PM TNSS, LS Mean [4]: −3.00
- Change from Baseline in PM TNSS, Mean [4]: −3.10
- Change from Baseline in PM TNSS, Median [4]: −2.80
- Percent Change from Baseline in AM TNSS, LS Mean [4]: −26.51%
- Percent Change from Baseline in AM TNSS, Mean [4]: −26.44%
- Percent Change from Baseline in AM TNSS, Median [4]: −20.00%
- Percent Change from Baseline in AM and PM Combined TNSS, LS Mean [4]: −28.70%
- Percent Change from Baseline in AM and PM Combined TNSS, Mean [4]: −28.86%
- Percent Change from Baseline in AM and PM Combined TNSS, Median [4]: −25.00%
- Percent Change from Baseline in PM TNSS, LS Mean [4]: −31.07%
- Percent Change from Baseline in PM TNSS, Mean [4]: −31.14%
- Percent Change from Baseline in PM TNSS, Median [4]: −28.57%
- Change from Baseline in AM and PM Combined TNSS, LS Mean (Day 14, Intent-to-Treat Population, ANCOVA model): −5.56
- Change from Baseline in AM and PM Combined TNSS, LS Mean [5]: −5.50
- Change from Baseline in AM and PM Combined TNSS, Mean [5]: −5.62
- Change from Baseline in AM and PM Combined TNSS, Median [5]: −5.30
- Percent Change from Baseline in AM and PM Combined TNSS, LS Mean [5]: −28.52%
- Percent Change from Baseline in AM and PM Combined TNSS, Mean [5]: −28.86%
- Percent Change from Baseline in AM and PM Combined TNSS, Median [5]: −25.00%
- AUC of Change from Baseline in TNSS (AM and PM Combined), Mean (Intent-to-Treat Population): −60.38
- AUC of Change from Baseline in TNSS (AM and PM Combined), Median (Intent-to-Treat Population): −56.00
- AUC of Change from Baseline in TNSS (AM and PM Combined), LS Mean (Intent-to-Treat Population): −59.72
- Change from Baseline in AM TNSS, LS Mean [6]: −2.22
- Change from Baseline in AM TNSS, Mean [6]: −2.21
- Change from Baseline in AM TNSS, Median [6]: −1.86
- Change from Baseline in AM and PM Combined TNSS, Mean [6]: −4.73
- Change from Baseline in AM and PM Combined TNSS, Median [6]: −4.24
- Change from Baseline in PM TNSS, LS Mean [6]: −2.57
- Change from Baseline in PM TNSS, Mean [6]: −2.51
- Change from Baseline in PM TNSS, Median [6]: −2.38
- Percent Change from Baseline in AM TNSS, LS Mean [6]: −23.13%
- Percent Change from Baseline in AM TNSS, Mean [6]: −23.29%
- Percent Change from Baseline in AM TNSS, Median [6]: −19.23%
- Percent Change from Baseline in AM and PM Combined TNSS, LS Mean [6]: −24.78%
- Percent Change from Baseline in AM and PM Combined TNSS, Mean [6]: −24.47%
- Percent Change from Baseline in AM and PM Combined TNSS, Median [6]: −24.26%
- Percent Change from Baseline in PM TNSS, LS Mean [6]: −26.45%
- Percent Change from Baseline in PM TNSS, Mean [6]: −25.39%
- Percent Change from Baseline in PM TNSS, Median [6]: −21.68%
- Change from Baseline in AM and PM Combined TNSS, LS Mean (Overall (Day 2 to Day 14), Intent-to-Treat Population, ANCOVA model): −4.76
- Change from Baseline in AM and PM Combined TNSS, LS Mean [7]: −4.73
- Change from Baseline in AM and PM Combined TNSS, Mean [7]: −4.73
- Change from Baseline in AM and PM Combined TNSS, Median [7]: −4.24
- Percent Change from Baseline in AM and PM Combined TNSS, LS Mean [7]: −24.72%
- Percent Change from Baseline in AM and PM Combined TNSS, Mean [7]: −24.47%
- Percent Change from Baseline in AM and PM Combined TNSS, Median [7]: −24.26%
- AUC of Change from Baseline in TNSS (AM and PM Combined), Mean (Per-Protocol Population): −60.38
- AUC of Change from Baseline in TNSS (AM and PM Combined), Median (Per-Protocol Population): −56.00
- AUC of Change from Baseline in TNSS (AM and PM Combined), LS Mean (Per-Protocol Population): −59.23
